Reference: PubChem BioAssay AID2060898 (Molecular Pharmacology Branch, DTP, NCI, 2025)
Blank lines part the entries; values can stand above or below the molecule they belong to.

System: 616215-338-R-J1-PDC complex spheroid viability
Test: Anticancer human tumor 616215-338-R-J1-PDC patient-derived colon adenocarcinoma cell line growth inhibition [RAS]
Conditions: for IC50: curve of first compound; for viability, T/C: stronger effect = lower value
How it was run: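 Agents were tested in combination matrices in half-log decrements from a top concentration at or near clinical Cmax (10 microM if undetermined). Targets were multi-cell spheroids of tumour lines plus HUVEC and MSC stromal cells.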
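Also: spheroids exposed to agents for seven days before viability readout.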
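For viability, T/C in this document: 100% = DMSO vehicle control viability.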

IC50 (second compound 0.0316 µM): 19 nM
IC50 (second compound 0.1 µM): 13.4 nM
IC50 (second compound 0.316 µM): 18.9 nM
IC50 (second compound 1 µM): 10.7 nM
IC50 (second compound 3.16 µM): 8.28 nM
IC50 (second compound 10 µM): 5.91 nM
SMILES: CC1(C)CCC(Nc2ncc(C(F)(F)F)c(-c3c[nH]c4c(P(C)(C)=O)c(C#N)ccc34)n2)CN1 (stereo unspecified) + C#Cc1c(F)ccc2cc(O)cc(-c3ncc4c(N5CC6CCC(C5)N6)nc(OCC56CCCN5CC(F)C6)nc4c3F)c12
viability, T/C (second compound 0.0316 µM, first compound 0.000949 µM): 103%
viability, T/C (second compound 0.0316 µM, first compound 0.003 µM): 112%
viability, T/C (second compound 0.0316 µM, first compound 0.00949 µM): 70.1%
viability, T/C (second compound 0.0316 µM, first compound 0.03 µM): 37.4%
viability, T/C (second compound 0.0316 µM, first compound 0.0949 µM): 35.9%
viability, T/C (second compound 0.0316 µM, first compound 0.3 µM): 36.8%
viability, T/C (second compound 0.1 µM, first compound 0.000949 µM): 107%
viability, T/C (second compound 0.1 µM, first compound 0.003 µM): 105%
viability, T/C (second compound 0.1 µM, first compound 0.00949 µM): 56.7%
viability, T/C (second compound 0.1 µM, first compound 0.03 µM): 37.7%
viability, T/C (second compound 0.1 µM, first compound 0.0949 µM): 31.8%
viability, T/C (second compound 0.1 µM, first compound 0.3 µM): 28.2%
viability, T/C (second compound 0.316 µM, first compound 0.000949 µM): 109%
viability, T/C (second compound 0.316 µM, first compound 0.003 µM): 105%
viability, T/C (second compound 0.316 µM, first compound 0.00949 µM): 66.5%
viability, T/C (second compound 0.316 µM, first compound 0.03 µM): 40.5%
viability, T/C (second compound 0.316 µM, first compound 0.0949 µM): 32.3%
viability, T/C (second compound 0.316 µM, first compound 0.3 µM): 31.9%
viability, T/C (second compound 1 µM, first compound 0.000949 µM): 117%
viability, T/C (second compound 1 µM, first compound 0.003 µM): 108%
viability, T/C (second compound 1 µM, first compound 0.00949 µM): 52.1%
viability, T/C (second compound 1 µM, first compound 0.03 µM): 31.2%
viability, T/C (second compound 1 µM, first compound 0.0949 µM): 27.8%
viability, T/C (second compound 1 µM, first compound 0.3 µM): 31.2%
viability, T/C (second compound 3.16 µM, first compound 0.000949 µM): 109%
viability, T/C (second compound 3.16 µM, first compound 0.003 µM): 89.3%
viability, T/C (second compound 3.16 µM, first compound 0.00949 µM): 45.8%
viability, T/C (second compound 3.16 µM, first compound 0.03 µM): 27.8%
viability, T/C (second compound 3.16 µM, first compound 0.0949 µM): 34.1%
viability, T/C (second compound 3.16 µM, first compound 0.3 µM): 36.7%
viability, T/C (second compound 10 µM, first compound 0.000949 µM): 96.5%
viability, T/C (second compound 10 µM, first compound 0.003 µM): 69.3%
viability, T/C (second compound 10 µM, first compound 0.00949 µM): 37.5%
viability, T/C (second compound 10 µM, first compound 0.03 µM): 24.7%
viability, T/C (second compound 10 µM, first compound 0.0949 µM): 32.5%
viability, T/C (second compound 10 µM, first compound 0.3 µM): 31.7%

IC50 (second compound 0.000949 µM): 15.3 nM
IC50 (second compound 0.003 µM): 13.8 nM
IC50 (second compound 0.00949 µM): 14.2 nM
IC50 (second compound 0.03 µM): 16.4 nM
IC50 (second compound 0.0949 µM): 8.04 nM
IC50 (second compound 0.3 µM): 9.13 nM
SMILES: CCc1c2c(nc3ccc(O)cc13)-c1cc3c(c(=O)n1C2)COC(=O)[C@]3(O)CC + CCn1c(-c2cccnc2C(C)OC)c2c3cc(ccc31)N1CCOC(CC(NC(=O)C(C(C)C)N(C)C(=O)C3(F)CCN(C(=O)C#CC(C)(C)N(C)C)CC3)C(=O)N3CCCC(N3)C(=O)OCC(C)(C)C2)C1
viability, T/C (second compound 0.000949 µM, first compound 0.000949 µM): 105%
viability, T/C (second compound 0.000949 µM, first compound 0.003 µM): 101%
viability, T/C (second compound 0.000949 µM, first compound 0.00949 µM): 56.8%
viability, T/C (second compound 0.000949 µM, first compound 0.03 µM): 39%
viability, T/C (second compound 0.000949 µM, first compound 0.0949 µM): 32.6%
viability, T/C (second compound 0.000949 µM, first compound 0.3 µM): 18.1%
viability, T/C (second compound 0.003 µM, first compound 0.000949 µM): 97.9%
viability, T/C (second compound 0.003 µM, first compound 0.003 µM): 99%
viability, T/C (second compound 0.003 µM, first compound 0.00949 µM): 56%
viability, T/C (second compound 0.003 µM, first compound 0.03 µM): 35.8%
viability, T/C (second compound 0.003 µM, first compound 0.0949 µM): 30.6%
viability, T/C (second compound 0.003 µM, first compound 0.3 µM): 16.6%
viability, T/C (second compound 0.00949 µM, first compound 0.000949 µM): 107%
viability, T/C (second compound 0.00949 µM, first compound 0.003 µM): 98.4%
viability, T/C (second compound 0.00949 µM, first compound 0.00949 µM): 58.1%
viability, T/C (second compound 0.00949 µM, first compound 0.03 µM): 32%
viability, T/C (second compound 0.00949 µM, first compound 0.0949 µM): 30.1%
viability, T/C (second compound 0.00949 µM, first compound 0.3 µM): 15.1%
viability, T/C (second compound 0.03 µM, first compound 0.000949 µM): 111%
viability, T/C (second compound 0.03 µM, first compound 0.003 µM): 110%
viability, T/C (second compound 0.03 µM, first compound 0.00949 µM): 58.7%
viability, T/C (second compound 0.03 µM, first compound 0.03 µM): 40.9%
viability, T/C (second compound 0.03 µM, first compound 0.0949 µM): 30.8%
viability, T/C (second compound 0.03 µM, first compound 0.3 µM): 16.4%
viability, T/C (second compound 0.0949 µM, first compound 0.000949 µM): 99.9%
viability, T/C (second compound 0.0949 µM, first compound 0.003 µM): 97.6%
viability, T/C (second compound 0.0949 µM, first compound 0.00949 µM): 41.9%
viability, T/C (second compound 0.0949 µM, first compound 0.03 µM): 33.4%
viability, T/C (second compound 0.0949 µM, first compound 0.0949 µM): 30.2%
viability, T/C (second compound 0.0949 µM, first compound 0.3 µM): 16.6%
viability, T/C (second compound 0.3 µM, first compound 0.000949 µM): 103%
viability, T/C (second compound 0.3 µM, first compound 0.003 µM): 69%
viability, T/C (second compound 0.3 µM, first compound 0.00949 µM): 48.1%
viability, T/C (second compound 0.3 µM, first compound 0.03 µM): 37.1%
viability, T/C (second compound 0.3 µM, first compound 0.0949 µM): 26%
viability, T/C (second compound 0.3 µM, first compound 0.3 µM): 14.3%

IC50 (second compound 0.000949 µM): 8750 nM
IC50 (second compound 0.003 µM): > 10000 nM
IC50 (second compound 0.00949 µM): > 10000 nM
IC50 (second compound 0.03 µM): 8380 nM
IC50 (second compound 0.0949 µM): 6150 nM
IC50 (second compound 0.3 µM): 3000 nM
SMILES: CC(C)NCC(C(=O)N1CCN(c2ncnc3c2C(C)CC3O)CC1)c1ccc(Cl)cc1 (stereo unspecified) + CCn1c(-c2cccnc2C(C)OC)c2c3cc(ccc31)N1CCOC(CC(NC(=O)C(C(C)C)N(C)C(=O)C3(F)CCN(C(=O)C#CC(C)(C)N(C)C)CC3)C(=O)N3CCCC(N3)C(=O)OCC(C)(C)C2)C1
viability, T/C (second compound 0.000949 µM, first compound 0.0316 µM): 106%
viability, T/C (second compound 0.000949 µM, first compound 0.1 µM): 106%
viability, T/C (second compound 0.000949 µM, first compound 0.316 µM): 102%
viability, T/C (second compound 0.000949 µM, first compound 1 µM): 113%
viability, T/C (second compound 0.000949 µM, first compound 3.16 µM): 90.7%
viability, T/C (second compound 0.000949 µM, first compound 10 µM): 44.7%
viability, T/C (second compound 0.003 µM, first compound 0.0316 µM): 98.1%
viability, T/C (second compound 0.003 µM, first compound 0.1 µM): 95.9%
viability, T/C (second compound 0.003 µM, first compound 0.316 µM): 94%
viability, T/C (second compound 0.003 µM, first compound 1 µM): 98.4%
viability, T/C (second compound 0.003 µM, first compound 3.16 µM): 97.4%
viability, T/C (second compound 0.003 µM, first compound 10 µM): 50.9%
viability, T/C (second compound 0.00949 µM, first compound 0.0316 µM): 112%
viability, T/C (second compound 0.00949 µM, first compound 0.1 µM): 101%
viability, T/C (second compound 0.00949 µM, first compound 0.316 µM): 93.5%
viability, T/C (second compound 0.00949 µM, first compound 1 µM): 98.5%
viability, T/C (second compound 0.00949 µM, first compound 3.16 µM): 85.5%
viability, T/C (second compound 0.00949 µM, first compound 10 µM): 51.1%
viability, T/C (second compound 0.03 µM, first compound 0.0316 µM): 99.7%
viability, T/C (second compound 0.03 µM, first compound 0.1 µM): 98.8%
viability, T/C (second compound 0.03 µM, first compound 0.316 µM): 105%
viability, T/C (second compound 0.03 µM, first compound 1 µM): 111%
viability, T/C (second compound 0.03 µM, first compound 3.16 µM): 96.2%
viability, T/C (second compound 0.03 µM, first compound 10 µM): 41.4%
viability, T/C (second compound 0.0949 µM, first compound 0.0316 µM): 118%
viability, T/C (second compound 0.0949 µM, first compound 0.1 µM): 108%
viability, T/C (second compound 0.0949 µM, first compound 0.316 µM): 111%
viability, T/C (second compound 0.0949 µM, first compound 1 µM): 97.2%
viability, T/C (second compound 0.0949 µM, first compound 3.16 µM): 73.9%
viability, T/C (second compound 0.0949 µM, first compound 10 µM): 32.4%
viability, T/C (second compound 0.3 µM, first compound 0.0316 µM): 116%
viability, T/C (second compound 0.3 µM, first compound 0.1 µM): 116%
viability, T/C (second compound 0.3 µM, first compound 0.316 µM): 108%
viability, T/C (second compound 0.3 µM, first compound 1 µM): 85.6%
viability, T/C (second compound 0.3 µM, first compound 3.16 µM): 48.1%
viability, T/C (second compound 0.3 µM, first compound 10 µM): 28.6%
